# Patent US11648255B2, “Inhibitors for treatment of hematological malignancies” (Masarykova Univerzita, priority 2020, dated 2023)
# What was measured:
# [1] = test system: primary CLL cells; test: Ca2+ flux (Fluo-4AM, flow cytometry) after SDF1 stimulation; assay type: cell-based, human; settings: 25 μM inhibitor 6 hours, SDF1 100 μg/ml
# Description: Primary CLL cells (5×10^6/ml) were treated with 25 μM GAB1-001 inhibitor (inhGAB1-001) or GAB1-004 inhibitor (inhGAB1-004) for 6 hours (culture conditions are described in the Material and Method section). These inhibitors were obtained from MD Anderson, USA (Lu Chen et al., PLoS Comput Biol. 2015; 11(1): e1004021.). Control cells were treated with an equal volume of DMSO also for 6 hours. After that were these cells incubated in Hanks Balanced Salt Solution (HBSS, catalog number: H6648, Sigma Aldrich) containing […] Fluo-4AM (catalog number: F14201, Thermo Fisher Scientific) for 30 minutes at 37° C. in the dark. The cells were subsequently prepared for analysis according to instructions provided by the manufacturer of Fluo-4AM. The malignant B cells were subsequently analyzed by flow cytometry (BD FACS Verse, BD Biosciences). Samples were acquired for 60 seconds without stimulation. After that the cells were immediately stimulated by SDF1 100 μg/ml (catalog number: 300-28A, Peprotech). […] To calculate the response to SDF1, we established a baseline fluorescence threshold for each sample (by acquiring samples for 60 seconds without any stimulus). We then calculated the peak Fluo-4AM signal and the percentage of cells with fluorescence intensity above baseline Fluo-4AM signal following stimulation addition.
# [2] = test system: primary CLL cells; test: viability by DiOC6/PI staining, flow cytometry; assay type: cell-based; settings: Homo sapiens, CLL cell, 48 hours, DMSO control 55.67
# Description: To see the effect of GAB1 inhibitors on malignant B cell viability we treated 5×10^6/ml of primary CLL cells with different doses (10, 25 or 50 μM) of GAB1-001 inhibitor (inhGAB1-001) or GAB1-004 inhibitor (inhGAB1-004) for 48 hours. These inhibitors were obtained from MD Anderson, USA (Lu Chen et al., PLoS Comput Biol. 2015; 11(1): e1004021.). Control cells were treated with an equal volume of DMSO also for 48 hours (culture conditions are described in the Material and Method section). After that, the cells were stained with DiOC6/PI (3,3′-dihexyloxacarbocyanine iodide together with propidium iodide; catalog numbers: D273 and P3566; both were obtained from Thermo Fisher Scientific). Cells were stained and analyzed according to manufacturer protocol. The analysis was performed using BD FACS Verse flow cytometer (BD Biosciences).
# [3] = test system: MEC1 cells; test: viability by DiOC6/PI staining, ibrutinib and/or GAB1 inhibitors; assay type: cell-based; settings: ibrutinib 1 μM six days, then GAB1 inhibitors 25 μM 48 hours, DMSO control 85.20
# Description: Cells were cultivated for six days (see Material and Method section) and ibrutinib or DMSO were supplemented each second day. […] After that were cells harvested and stained for viability using DiOC6/PI (3,3′-dihexyloxacarbocyanine iodide together with propidium iodide (catalog numbers: D273 and P3566; both were obtained from Thermo Fisher Scientific). Cells were stained and analyzed according to manufacturer protocol. The analysis was performed using BD FACS Verse flow cytometer (BD Biosciences).
# [4] = test system: primary CLL cells; test: competitive migration assay (transwell) after inhibitor treatment; assay type: cell-based, human; settings: GAB1 inhibitors 50 μM, ibrutinib 1 μM, 12 hours, migration towards conditioned media (50%) 6 hours, control set to 1
# Description: HS5 cells (3.5×10^6) were seeded in T75 cultivation flask (TPP) in 12 ml of Dulbecco's Modified Eagle's Medium media (DMEM, catalog number: D6429, Sigma-Aldrich). The next day was original media discarded, the cells attached to the bottom of the flask were washed once with 10 ml of PBS (catalog number: 5493; Sigma Aldrich). Subsequently, the 25 ml of RPMI-1640 (catalog number: R8758, Sigma-Aldrich) media was added to the attached HS5 cells. After 48 hours was this conditioned media collected, purified from cell-debris by 10 minutes centrifugation at 2000 RCF and subsequently diluted with fresh RPMI-1640 media (catalog number: R8758, Sigma-Aldrich) containing 10% FBS (catalog number: FB-1350; Biosera) and 5% penicillin/streptomycin (catalog number: P4333; Sigma Aldrich) to final concentration 50% conditioned media. This media was immediately used for experiments.
# To compare the migration, the stained cells (control cells plus one treated variant) were mixed in ratio 1:1 and loaded in transwell inserts (24 well insert, 8 μm pore size; Falcon, Corning) according to manufacturer protocol. […] The ratio of migrated inhibitor-treated cells was calculated by dividing of the percentage of migrated inhibitor-treated cells by percentage of migrated control cells.
# [5] = test system: JEKO (Mantle cell lymphoma); test: viability by DiOC6/PI staining, ibrutinib and/or GAB1 inhibitors; assay type: cell-based; settings: ibrutinib 1 μM six days, then GAB1 inhibitors 25 μM 48 hours, DMSO control 76.64
# Description: (§1) Cells were cultivated for six days (see Material and Method section) and ibrutinib or DMSO were supplemented each second day. […] The analysis was performed using BD FACS Verse flow cytometer (BD Biosciences).
# [6] = test system: ML2 (Acute myeloid leukemia); test: as above; assay type: cell-based; settings: ibrutinib 1 μM six days, then GAB1 inhibitors 25 μM 48 hours, DMSO control 76.92
# Description: as §1
# [7] = test system: OciLy5 (Small lymphocytic leukemia); test: as above; assay type: cell-based; settings: ibrutinib 1 μM six days, then GAB1 inhibitors 25 μM 48 hours, DMSO control 81.47
# Description: as §1
# [8] = test system: DOHH2 (GC-DLBCL); test: viability by DiOC6/PI staining, GAB1 inhibitors; assay type: cell-based; settings: Homo sapiens, DOHH-2, 48 hours, DMSO control 81.84
# Description: (§2) In a further experiment, 2.5×10^6/ml of RAMOS (derived from Burkitt's lymphoma) or DOHH2 (derived from diffuse large B cell lymphoma) or GRANTA (derived from […]) or WSU-NHL (derived from follicular lymphoma) cells was treated with treated with two different GAB inhibitors (inhGAB1-001 and inhGAB1-004; provided by MD Anderson, USA (Lu Chen et al., PLoS Comput Biol. 2015; 11(1): e1004021.) at final concentration 25 μM, or with an equal volume of vehicle (DMSO) for 48 hours. After that, cells were harvested and stained for viability using DiOC6/PI (3,3′-dihexyloxacarbocyanine iodide together with propidium iodide; catalog numbers: D273 and P3566; both were obtained from Thermo Fisher Scientific). Cells were stained and analyzed according to manufacturer protocol. The analysis was performed using BD FACS Verse flow cytometer (BD Biosciences).
# [9] = test system: GRANTA (Acute lymphoblastic leukemia); test: viability by DiOC6/PI staining, GAB1 inhibitors; assay type: cell-based; settings: 48 hours, DMSO control 87.24
# Description: as §2
# [10] = test system: RAMOS (Burkitt's lymphoma); test: viability by DiOC6/PI staining, GAB1 inhibitors; assay type: cell-based; settings: Homo sapiens, 48 hours, DMSO control 95.01
# Description: as §2
# [11] = test system: WSU-NHL (Follicular lymphoma); test: viability by DiOC6/PI staining, GAB1 inhibitors; assay type: cell-based; settings: Homo sapiens, 48 hours, DMSO control 87.34
# Description: as §2
# [12] = test system: phospho-GAB1 Y307 in primary CLL cells; test: immunoblot of GAB1 phosphorylation after stimulation with SDF1 or conditioned media, with or without plerixafor; assay type: cell-based, human
# Description: Samples were sonicated 2×10 seconds, amplitude 60% (type: UP100H; Hielscher). […] Electrophoresis was conducted using Biorad Miniprotean system (Biorad) according to manufacturer protocol (voltage: 60-110 V, electrophoresis buffer: 25 mM TRIS, 250 mM glycine, […], pH 8.2; all reagents were obtained from Sigma Aldrich; catalog numbers: L3771, T6066, H1758, G8898). Proteins were subsequently transferred to the PVDF membrane (0.45 μm pore size, Millipore) using Biorad Miniprotean system (Biorad) according to manufacturer protocol (blot buffer: 20% methanol, 192 mM glycine, 25 mM TRIS; all reagents were obtained from Sigma Aldrich; catalog numbers: 34860, T6066, H1758, G8898).
# HS5 cells (3.5×10^6) were seeded in T75 cultivation flask (TPP) in 12 ml of Dulbecco's Modified Eagle's Medium media (DMEM, catalog number: D6429, Sigma-Aldrich). The next day was original media discarded, the cells attached to the bottom of the flask were washed once with 10 ml of PBS (catalog number: 5493; Sigma Aldrich). Subsequently, the 25 ml of RPMI-1640 (catalog number: R8758, Sigma-Aldrich) media was added to the attached HS5 cells. […] This media was immediately used for experiments.
# Primary CLL cells (5×10^6/ml) were cultured as described in Material and Method section. […]
Compound,Ca2+ flux after treatment with SDF1 (FIG. 2G) [1],viability at 10 µM [2],viability at 25 µM [2],viability at 50 µM [2],% of viability [3],Ratio of migrated cells [4],% of viability [5],% of viability [6],% of viability [7],viability at 25 µM [8],viability at 25 µM [9],viability at 25 µM [10],viability at 25 µM [11],"GAB1 phosphorylation on conditioned media in the presence of plerixafor (FIG. 1A) ([12]; plerixafor 5 μg/ml 8 hours, 50% conditioned media 5 minutes)","GAB1 phosphorylation on stimulation (FIG. 1A) ([12]; SDF1 100 ng/ml, 5 minutes)"
O=c1[nH]nc(SCc2csc(-c3ccccc3)n2)n1Cc1ccco1 [inhGAB1-004],decreases the Ca^2+ flux,44.7%,42.6%,37.4%,74.52%,0.75,49.20%,28.07%,62.46%,72.3%,74.1%,74.6%,70.2%,,
c1cc(CN2CCCNCCNCCCNCC2)ccc1CN1CCCNCCNCCCNCC1 [plerixafor],,,,,,,,,,,,,,also led to GAB1 phosphorylation,
C=CC(=O)N1CCC[C@@H](n2nc(-c3ccc(Oc4ccccc4)cc3)c3c(N)ncnc32)C1 [ibrutinib],,,,,81.66%,,60.14%,68.93%,80.33%,,,,,,
"SDF1: Stromal cell-derived factor 1, chemokine ligand used as stimulus",,,,,,,,,,,,,,,phosphorylation and thus activation of GAB1 protein
O=S(=O)(NCc1csc2ccc(Cl)cc12)c1cc(S(=O)(=O)c2ccccc2)cs1 [inhGAB1-001],decreases the Ca^2+ flux,52.8%,50.3%,31%,67.00%,0.79,2.88%,6.86%,53.12%,51.9%,4.49%,50.3%,29.4%,,
